Measured values from ChEMBL document CHEMBL5370622 (J Nat Prod, 2023).

Key:
[1] = Inhibition of human full length […] gene fusion of J-PKAc alpha chimeric protein expressed in Escherichia coli BL21 (DE3) cells using CREB KRREILSRRPSYR-biotinylated peptide as substrate incubated for 45 mins in presence of ATP by ELISA
[2] = target: cAMP-dependent protein kinase catalytic subunit alpha (Homo sapiens, UniProt P17612); test: Inhibition of wild type PKAc alpha (unknown origin) using CREB KRREILSRRPSYR-biotinylated peptide as substrate incubated for 45 mins in presence of ATP by ELISA
[3] = Binding affinity to human full length […] gene fusion of J-PKAc alpha chimeric protein expressed in Escherichia coli BL21 (DE3) cells assessed as dissociation constant by MST assay
[4] = target: Dual specificity tyrosine-phosphorylation-regulated kinase 1A (Homo sapiens) (UniProt Q13627); test: Inhibition of human DYRK1A at 50 nM in presence of ATP by radiometric hotspot kinase assay relative to control
[5] = target: Dual specificity tyrosine-phosphorylation-regulated kinase 1B (Homo sapiens) (UniProt Q9Y463); test: Inhibition of human DYRK1B at 50 nM in presence of ATP by radiometric hotspot kinase assay relative to control
Dual specificity tyrosine-phosphorylation-regulated kinase 1B (Homo sapiens), sequence (Q9Y463 whole entry, looked up): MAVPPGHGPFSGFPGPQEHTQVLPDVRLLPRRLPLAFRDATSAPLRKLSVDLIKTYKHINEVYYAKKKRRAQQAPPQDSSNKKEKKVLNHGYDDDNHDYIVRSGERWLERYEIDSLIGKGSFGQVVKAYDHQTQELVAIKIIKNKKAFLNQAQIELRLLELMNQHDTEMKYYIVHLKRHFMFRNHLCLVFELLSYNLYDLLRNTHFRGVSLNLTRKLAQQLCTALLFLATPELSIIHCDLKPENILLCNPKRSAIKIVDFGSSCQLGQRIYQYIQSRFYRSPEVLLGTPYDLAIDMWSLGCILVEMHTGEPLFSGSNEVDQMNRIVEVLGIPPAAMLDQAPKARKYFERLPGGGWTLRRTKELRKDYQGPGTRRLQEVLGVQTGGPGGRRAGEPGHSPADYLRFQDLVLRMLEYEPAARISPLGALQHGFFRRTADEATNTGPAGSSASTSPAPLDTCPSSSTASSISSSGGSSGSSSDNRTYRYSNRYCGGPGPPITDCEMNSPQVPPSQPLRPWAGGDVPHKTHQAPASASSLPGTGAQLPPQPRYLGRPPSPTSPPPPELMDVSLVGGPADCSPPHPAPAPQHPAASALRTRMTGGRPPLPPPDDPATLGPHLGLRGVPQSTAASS

[6] = target: T1, Dual specificity tyrosine-phosphorylation-regulated kinase 2 (Homo sapiens) (UniProt Q92630); test: Inhibition of human DYRK2 at 50 nM in presence of ATP by radiometric hotspot kinase assay relative to control
T1 sequence (whole entry): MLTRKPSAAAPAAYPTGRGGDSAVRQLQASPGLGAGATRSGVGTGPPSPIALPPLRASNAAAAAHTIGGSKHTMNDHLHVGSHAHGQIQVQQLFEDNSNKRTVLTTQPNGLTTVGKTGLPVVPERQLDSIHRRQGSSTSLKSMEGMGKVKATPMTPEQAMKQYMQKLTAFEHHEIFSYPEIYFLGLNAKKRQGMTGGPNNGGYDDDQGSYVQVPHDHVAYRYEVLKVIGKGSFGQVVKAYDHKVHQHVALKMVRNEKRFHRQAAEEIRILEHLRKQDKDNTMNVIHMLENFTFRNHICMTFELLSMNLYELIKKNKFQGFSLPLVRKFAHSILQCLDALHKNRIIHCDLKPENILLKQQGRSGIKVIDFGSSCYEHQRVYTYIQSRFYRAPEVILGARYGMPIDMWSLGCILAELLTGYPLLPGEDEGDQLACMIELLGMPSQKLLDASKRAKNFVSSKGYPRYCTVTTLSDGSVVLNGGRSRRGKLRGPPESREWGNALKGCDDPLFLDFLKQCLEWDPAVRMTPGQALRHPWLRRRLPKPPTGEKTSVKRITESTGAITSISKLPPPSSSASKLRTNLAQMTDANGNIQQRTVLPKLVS

[7] = target: T2, Dual specificity tyrosine-phosphorylation-regulated kinase 3 (Homo sapiens) (UniProt O43781); test: Inhibition of human DYRK3 at 50 nM in presence of ATP by radiometric hotspot kinase assay relative to control
T2 sequence (whole entry): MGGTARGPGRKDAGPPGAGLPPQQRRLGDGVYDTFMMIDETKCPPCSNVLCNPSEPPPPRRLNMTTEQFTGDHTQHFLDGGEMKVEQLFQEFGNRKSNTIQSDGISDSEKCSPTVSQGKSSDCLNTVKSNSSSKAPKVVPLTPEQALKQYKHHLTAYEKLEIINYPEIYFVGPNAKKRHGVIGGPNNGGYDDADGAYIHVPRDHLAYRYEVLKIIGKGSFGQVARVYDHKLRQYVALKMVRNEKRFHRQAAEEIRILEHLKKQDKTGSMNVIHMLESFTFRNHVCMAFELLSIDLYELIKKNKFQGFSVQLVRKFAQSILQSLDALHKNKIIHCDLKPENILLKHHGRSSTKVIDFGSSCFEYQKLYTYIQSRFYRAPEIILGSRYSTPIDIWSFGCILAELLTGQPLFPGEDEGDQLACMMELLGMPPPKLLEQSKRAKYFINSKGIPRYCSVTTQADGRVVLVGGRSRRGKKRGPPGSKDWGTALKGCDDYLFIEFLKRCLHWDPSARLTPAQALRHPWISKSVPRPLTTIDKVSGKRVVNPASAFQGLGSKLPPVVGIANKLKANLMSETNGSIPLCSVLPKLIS

SMILES	IC50 [1]	IC50 [2]	inhibition [4]	inhibition [5]	inhibition [6]	inhibition [7]	Kd [3]
Cn1cncc1C1=CN(c2ncnc3[nH]cnc23)CC[S+]1[O-] (configuration not stated)	> 200 µM	–	–	–	–	–	–
Cn1cncc1C1=CN(c2ncnc3[nH]cnc23)CCS1(=O)=O	> 200 µM	–	–	–	–	–	–
Cn1cncc1C1=CN(c2ncnc3[nH]c(=O)[nH]c23)CCS1	79 µM	90 µM	–	–	–	–	37 µM

The next lines start with results.

IC50 [1]	IC50 [2]	inhibition [4]	inhibition [5]	inhibition [6]	inhibition [7]	SMILES	Kd [3]
> 200 µM	–	–	–	–	–	Cn1c(Br)nc(Br)c1C1=CN(c2ncnc3[nH]cnc23)CCS1	–
1.04 µM	1.1 µM	61%	49%	56%	49%	Cn1cnc(Br)c1C1=CN(c2ncnc3[nH]cnc23)CCS1	3 µM
–	–	23%	23%	21%	16%	Cn1cncc1C1=CN(c2ncnc3[nH]cnc23)CCS1	–
